Data as given in ChEMBL document CHEMBL4813914, “Tackling Antimicrobial Resistance with Small Molecules Targeting LsrK: Challenges and Opportunities” (J Med Chem, 2020).
pIC50: −log10 of the molar value.

Legend:
[1] = Inhibition of Salmonella typhimurium LsrK expressed in Escherichia coli MET1158 in presence of DPD by kinase-glo max luminescent assay; set-up: species or system Salmonella enterica subsp. enterica serovar Typhimurium
[2] = Inhibition of LsrK expressed in Escherichia coli JW5503 harboring plasmid pET-Plsrlux assessed as reduction in autoinducer2-mediated quorum sensing activation by luminescence method
[3] = Inhibition of Salmonella typhimurium LsrK expressed in Escherichia coli MET1158 incubated for 30 mins followed by DPD and ATP addition and measured after 15 mins by kinase-glo max luminescent assay; set-up: species or system Salmonella enterica subsp. enterica serovar Typhimurium
[4] = Inhibition of LsrK expressed in Escherichia coli LW7 pLW11 harboring assessed as reduction in autoinducer2-mediated quorum sensing by measuring beta-galactosidase expression by luminescence method

Row | pIC50 [1] | pIC50 [2] | Compound | other results
1 | 4.17 | – | COc1ccc(Nc2cc(C(F)(F)F)ccc2Cl)c(C(=O)O)c1 | –
2 | 3.83 | 5.70 | O=C(O)C(=O)N[C@H]1CCc2nc(NC(=O)c3cc(Br)c(Br)[nH]3)sc2C1 | –
3 | 4.82 | 6.40 | O=C(O)CC(=O)Nc1ccc2nc(N(Cc3ccccc3)C(=O)c3cc(Br)c(Br)[nH]3)sc2c1 | –
4 | – | – | CC1=C(O)C(=O)C=C2C1=CC=C1[C@@]2(C)CC[C@@]2(C)[C@@H]3C[C@](C)(C(=O)O)CC[C@]3(C)CC[C@]12C [CELASTROL] | pIC50 [3]: 5.52
5 | 3.75 | – | Cc1ccc(Cl)c(Nc2ccccc2C(=O)O)c1Cl [MECLOFENAMIC ACID] | –
6 | 4.92 | – | O=C(O)c1c(Cl)c(Cl)c(Cl)c(Cl)c1Nc1cc(Cl)c(Cl)c(Cl)c1Cl | –
7 | 4.15 | – | Cc1c(Cl)cccc1Nc1ccccc1C(=O)O [TOLFENAMIC ACID] | –
8 | 4.52 | – | O=C(O)c1ccc(Cl)cc1Nc1ccccc1 | –
9 | – | – | O=C(O)C1=CC(=C(c2ccc(O)c(C(=O)O)c2)c2ccc(O)c(C(=O)O)c2)C=CC1=O [AURINTRICARBOXYLIC ACID] | pIC50 [3]: 6.00
10 | 4.74 | 6.22 | O=C(O)C(=O)Nc1nc2ccc(NC(=O)c3cc(Br)c(Br)[nH]3)cc2s1 | –
11 | 4.11 | 4.77 | O=C(Nc1ccc(C2=N[C@@H](C(=O)O)CO2)cc1)c1cc(Br)c(Br)[nH]1 | –
12 | 3.85 | – | O=C(O)c1ccccc1Nc1ccc(Cl)cc1 | –
13 | – | – | COc1cc(C)c2c(c1C=O)Oc1c(c(C)c(O)c3c1C(O)OC3=O)OC2=O (stereo not given) [STICTIC ACID] | pIC50 [3]: 5.52
14 | 3.53 | – | O=C(O)c1ccc(O)c2ncccc12 | –
15 | 4.54 | 6.00 | Cc1[nH]c(C(=O)N(Cc2ccccc2)c2nc3ccc(NC(=O)C(=O)O)cc3s2)c(Cl)c1Cl | –
16 | 3.92 | – | O=C(O)c1ccccc1Nc1cccc(Cl)c1 | –
17 | – | – | O=C1C=CC(=C(c2ccc(O)cc2)c2ccc(O)cc2)C=C1 [AURIN] | pIC50 [4]: 4.85; pIC50 [3]: 6.00
18 | 4.74 | 5.00 | O=C(O)C(=O)Nc1ccc2nc(N(Cc3ccccc3)C(=O)c3cc(Br)c(Br)[nH]3)sc2c1 | –
